Legend:
Assay type in all cases: cell-based
[1] = tested on: NIH/3T3 cell migration; test: 1D cell migration (CYTOO plates); conditions: 10^-5 M
Method: NIH3T3cells (1000/well) were seeded in a 96 well plate with […] fibronectin stripes (CytooPlates Motility, CYTOO) in medium with 1% SVF and allowed to spread for 4 h before capturing time-lapse images for 24 h (image/10 min) on a Widefield Leica DMI 6000B drove with Metamorph software. Cells speed was measured with ImageJ software.
Supplementary Fig. 3: Example of one pharmacophore model used for virtual screening. (a) The pharmacophore model shown was created based on RAC1 (grey) and NSC23766 (orange) interaction. The pharmacophore model is formed by two hydrogenbond acceptor(HBA)features,one orientedtowardsthe hydroxylgroup of Ser71 (S71) and the other towards the amine group of Gln74 (Q74), one hydrogen bond donor (HBD) feature pointed to the oxygenatom of Leu70 (L70) and two hydrophobic features (HY) located on certain carbon atoms of NSC23766 and facing residues Val36 (V36), Ala59 (A59), Tyr64 (Y64) and Leu67 (L67). The spheres correspond to locationconstraint. […] (b) Impact of different screening molecules (10^-5 M) on NIH/3T3 cell adhesion (xCELLingence Real-time cellanalysis, Agilent), migration (CYTOO Mobility plates) and proliferation (xCELLingence Real-time cell analysis, Agilent) .The level of RAC activation is determinedby the detection of RAC-GTP (pull-down assay) in NIH/3T3 cell treated with EGF (10 ng/mL) and the differentmolecules and normalize to the level of RAC activity measuredin the presenceof the reference RAC inhibitor EHT1864.
(§1) Supplementary Fig. 4: A41 inhibits RAC-dependent cell functions. (a) Representative records of single NIH/3T3 cell migration on micropatterned fibronectin lines (CYTOO Mobility plates) in the absence (Control)and presenceA41 at 10^-5 M (left panel) and corresponding quantification of migration speed (right panel) (scale bar: 20µm). […] (b) Typical curves showing the cell index representing the adhesion of NIH/3T3 fibroblast (xCELLingence Real-time cell analysis, Agilent) under control condition (Control) and pre-treated with 10 µM A41 or NSC23766 (left panel) and corresponding quantification of cell adhesion speed (right panel). […]

[2] = tested on: NIH/3T3 cell adhesion; test: Cell adhesion assay (xCELLigence impedance); conditions: 10^-5 M
Method: NIH3T3cells (10000/well) were seeded in a 96 well plate microtiter xCELLigence assay plate (E-Plate) (ACEA Biosciences Inc.) and placed on the Real-time xCELLigence Cell Analyzer (Roche Applied Science) platform at 37°C to measure the “cell index” every 5 min for a period of 6 h. The cell index unit is defined as (Rn − Rb)/15. Rn is the cell electrode impedance of the well when it contains cells. Rb is the background impedance of the well with the media alone.
Supplementary Fig. 3: Example of one pharmacophore model used for virtual screening. (a) The pharmacophore model shown was created based on RAC1 (grey) and NSC23766 (orange) interaction. […] (b) Impact of different screening molecules (10^-5 M) on NIH/3T3 cell adhesion (xCELLingence Real-time cellanalysis, Agilent), migration (CYTOO Mobility plates) and proliferation (xCELLingence Real-time cell analysis, Agilent) .The level of RAC activation is determinedby the detection of RAC-GTP (pull-down assay) in NIH/3T3 cell treated with EGF (10 ng/mL) and the differentmolecules and normalize to the level of RAC activity measuredin the presenceof the reference RAC inhibitor EHT1864.
as §1

[3] = target: T1, RAC1 (Mus musculus, UniProt P63001); test: RAC-GTP pull-down assay, EGF-stimulated NIH/3T3 fibroblasts; conditions: 10^-5 M
T1 construct: endogenous in cells; host or cells: NIH/3T3 fibroblasts (ATCC CRL-1658), EGF-stimulated
Method: Figure 2 Identification of a new RAC1 inhibitor (A) Effect of A41 and NSC23766 on ruffle formation (white arrows) induced by EGF (10 ng/mL) in NIH 3T3 cells in serum-free culture medium (CTL). Inhibitors were added at indicated concentration 1 h prior to EGF stimulation. To assess cytoskeleton organization, cells were incubated with Alexa Fluor 488 phalloidin to visualize F-actin. Results shown are representative of 3 independent experiments. Corresponding concentration-response curves have been established by counting the percentages of cells with ruffles (scale bars: 10 μm). (B) Immunoblot analysis and associated quantification of RAC-GTP level and total RAC expression in NIH 3T3 cells stimulated by EGF (10 ng/mL, 5 min) and pre-incubated or not (−) with NSC23766, A41, or A415 at 10^−5 M for 1 h (∗∗∗p < 0.001 vs. controls without EGF stimulation, ^###p < 0.001 vs. controls with EGF stimulation) (N > 3). (C) Representative surface plasmon resonance (SPR) sensograms of binding of immobilized RAC1 with increasing concentrations of A41 with or without EDTA (20 mM) (N > 3). (D) Representative in vitro nucleotide exchange catalyzed by the DH-PH of TIAM (10 nM) measured by the binding of fluorescent mant-GTP (1 μM) to RAC1 (0.5 μM, preloaded with GDP) in the presence of indicated concentrations of A41 (out of N = 6). Dotted lines correspond to the experimental curves, and continuous lines represent the fit of experimental points. (E) Kobs and Kmax were determined in each condition (N = 6). (F) Predicted binding modes of A4 to the NSC23766-binding site (left) or the GDP-binding pocket of RAC1 (right). In the NSC23766-binding site of RAC1, the compound A4 (carbon atoms in blue) makes 2 hydrogen bonds (green dotted line) with Ser71 (S71) and 10 hydrophobic interactions (pink dotted line) with Ala3 (A3), Lys5 (K5), Val36 (V36), Trp56 (W56), Tyr64 (Y64), and Leu67 (L67) leading to a docking score of −6.03 kcal/mol. The GDP molecule is shown with fine line. The P loop is shown in yellow, the switch 1 in orange, and the switch 2 in green. […]
Pull-down assay using GST-PBD fusion proteins were performed on NIH-3T3 lysates to assess RAC1 activity as previously described.[63] The precipitated active RAC was subjected to SDS-PAGE and detected by immunoblot with anti-RAC1 antibody (BD biosciences) (dilution 1/1000). […]
screening molecules (10^-5 M) on NIH/3T3 cell adhesion (xCELLingence Real-time cellanalysis, Agilent), migration (CYTOO Mobility plates) and proliferation (xCELLingence Real-time cell analysis, Agilent) .The level of RAC activation is determinedby the detection of RAC-GTP (pull-down assay) in NIH/3T3 cell treated with EGF (10 ng/mL) and the differentmolecules and normalize to the level of RAC activity measuredin the presenceof the reference RAC inhibitor EHT1864.

[4] = tested on: NIH/3T3 cell proliferation; test: Cell proliferation (xCELLigence); conditions: 10^-5 M
Excerpt: Supplementary Fig. 3: Example of one pharmacophore model used for virtual screening. (a) The pharmacophore model shown was created based on RAC1 (grey) and NSC23766 (orange) interaction. The pharmacophore model is formed by two hydrogenbond acceptor(HBA)features,one orientedtowardsthe hydroxylgroup of Ser71 (S71) and the other towards the amine group of Gln74 (Q74), one hydrogen bond donor (HBD) feature pointed to the oxygenatom of Leu70 (L70) and two hydrophobic features (HY) located on certain carbon atoms of NSC23766 and facing residues Val36 (V36), Ala59 (A59), Tyr64 (Y64) and Leu67 (L67). The spheres correspond to locationconstraint. The pharmacophoremodel was completedby thirteen exclusion spheres centered on the main residues of RAC1 defining the binding site. The P loop, the switch 1 and the switch 2 are shown in yellow, orange and green respectively. (b) Impact of different screening molecules (10^-5 M) on NIH/3T3 cell adhesion (xCELLingence Real-time cellanalysis, Agilent), migration (CYTOO Mobility plates) and proliferation (xCELLingence Real-time cell analysis, Agilent) .The level of RAC activation is determinedby the detection of RAC-GTP (pull-down assay) in NIH/3T3 cell treated with EGF (10 ng/mL) and the differentmolecules and normalize to the level of RAC activity measuredin the presenceof the reference RAC inhibitor EHT1864.

[5] = tested on: RAC1-GTP levels in MDA-MB-468 Luc cells; test: RAC-GTP immunofluorescence; conditions: 10^-5 M, 1 h
Method: Luciferase (Luc, green) was used to detect the cells. […] (C) Quantification of colony number of indicated cancer cell lines in the presence of A41 (10 μM) expressed as the percentage of control in the absence of A41. […] (D) Immunoblot analysis and corresponding quantification of AKT and P44/42 expression and phosphorylation (pAKT, p44/42) in MDA-MB-468 Luc cells in the absence (−) and presence of NSC23766 or A41 (1 h at 10^−5 M). […] (E) 3D invasion assay of MDA-MB-468 Luc and cancer-associated fibroblasts (CAFs) and corresponding quantification (scale bars: 200 μm).
After indicated treatments, cells were fixed with 4% paraformaldehyde and permeabilized in PBS 0.5% Triton X-100. To assess RAC1 activity, cells were then incubated with RAC-GTP antibody (26903, NewEast Biosciences, King of Prussia, Pa) (dilution 1/500) overnight at room temperature, followed by secondary Alexa 568-labeled anti-mouse antibody (dilution 1/1000). Cancer cells were detected with firefly luciferase antibody (ab21176, Abcam) (dilution 1/500) overnight at room temperature, followed by secondary Alexa 488-labeled anti-rabbit antibody (dilution 1/1000). To assess cytoskeleton organization, cells were incubated with Alexa Fluor 488 phalloidin (A12379, Invitrogen) to visualize F-actin. After staining, cells were mounted in Prolong gold antifade reagent with DAPI and images were captured by a fluorescence microscope.

Compound	Migration (% inhib) [1]	Adhesion (% inhib) [2]	RAC1 activation (active GTP-bound RAC1) ([3]; 1 h, EGF 10 ng/mL 5 min)	Proliferation (% ctrl) [4]	effect on RAC1 activity [5]	Rac-GTP level (relative to EHT1864) ([3]; EGF 10 ng/mL)
CCN(CC)CCCC(C)Nc1nc(C)cc(Nc2ccc3nc(C)cc(N)c3c2)n1 (stereo not shown) [NSC23766]	20%	34%	no significant effect	131%	little effect	–
O=c1cc(CN2CCOCC2)occ1OCCCCCSc1ccnc2cc(C(F)(F)F)ccc12 [EHT1864]	35%	32%	–	101%	no	1.00

Source: article PMC12281424, “A Rac-specific competitive inhibitor of guanine nucleotide binding reduces metastasis in triple-negative breast cancer” (Cell Reports Medicine, 2025)
